Experimental findings from paper PMC11843658 (Journal of Enzyme Inhibition and Medicinal Chemistry, 2025) are described below.

The structures appear in SMILES notation.

One experiment deals with C42B cells. The experiment is described as follows: CCK8 assay, C42B prostate cancer cells. Particulars: Homo sapiens, 10 μM, 48 h, read-out: cell viability rate. It counts as cell-based. The protocol: (§1) C42B, PC3, Caco-2, HepG2, MCF7, HL-60, 8505 C, OVCAR-3, and A549 were cultured to screen the broad-spectrum antiproliferative activity of compound 14. For above cell lines, three thousand cells per well were seeded in the 96-well plate and treated by compound 14 for 48 or 72 h at different concentrations (0, 5, 10, and 20 μM). In addition, HepG2, HEP3B, HUH6, and HUH7 were cultured to screen its antiproliferative activity against liver cancer cell lines. For these liver cancer cell lines, two thousand cells per well were seeded in the 96-well plate and treated by compound 14 for 48 h at different concentrations (0, 0.625, 1.25, 2.5, and 5 μM). Then, 10 μl of CCK8 was added into each well and cells were incubated in a humidified atmosphere of 5% CO2 at 37 °C for 4 h. The 96-well plate was measured with a microplate reader (Bio-Tek, San Diego, CA) at a wavelength of 450 nm to calculate IC50 values.

For the next experiment, the system named is PC3 cells. The experiment is described as follows: CCK8 assay, PC3 prostate cancer cells. It counts as cell-based. Particulars: Homo sapiens, PC-3, 10 μM, 48 h, read-out: cell viability rate. The protocol:
as §1
(In general: Tetrazolium dyes change colour on reduction, which living cells bring about.)

The test system of a further experiment is Caco-2 cells. Put plainly: CCK8 assay, Caco-2 colon cancer cells. It is filed as cell-based. Particulars: Homo sapiens, 10 μM, 48 h, read-out: cell viability rate. The protocol:
as §1

The subject of another experiment is MCF7 cells. Put plainly: CCK8 assay, MCF7 breast cancer cells. It is filed as cell-based. Particulars: Homo sapiens, 10 μM, 48 h, read-out: cell viability rate. Here is the method: as §1
The next experiment relates to HL-60 cells. Put plainly: CCK8 assay, HL-60 leukaemia cells. As to conditions: Homo sapiens, 10 μM, 48 h, read-out: cell viability rate. It is filed as cell-based. The protocol: as §1
A further experiment concerns 8505 C cells. Put plainly: CCK8 assay, 8505 C thyroid cancer cells. It counts as cell-based. Particulars: Homo sapiens, 10 μM, 48 h, read-out: cell viability rate. Here is the method: as §1
Another experiment has as its system OVCAR-3 cells. The experiment is described as follows: CCK8 assay, OVCAR-3 ovarian cancer cells. It counts as cell-based. As to conditions: Homo sapiens, 10 μM, 48 h, read-out: cell viability rate. Here is the method:
as §1

The subject of the next experiment is HUH6 cells. Put plainly: CCK8 assay, HUH6 liver cancer cells. As to conditions: Homo sapiens, HuH-6, CCK8, 48 h, 0-5 μM, read-out: IC50, antiproliferative activity. It is filed as cell-based. Here is the method:
as §1

The test system of a further experiment is HUH7 cells. Put plainly: CCK8 assay, HUH7 liver cancer cells. It is filed as cell-based. As to conditions: Homo sapiens, Huh-7, CCK8, 48 h, 0-5 μM, read-out: IC50, antiproliferative activity. The protocol:
as §1

Another experiment relates to H3K4me1/2. Put plainly: Western blotting of LSD1 substrates H3K4me1/2. It is filed as cell-based. As to conditions: Western blotting, 0, 0.5, 1, and 2 μM, 48 h. Here is the method: Compound 14 at different concentrations (0, 0.5, 1, and 2 μM) was added into cancer cells solution and incubated for 48 h. Total protein was isolated from cells using RIPA buffer (Servicebio, Wuhan, China). An amount of […] of total protein were separated by sodium dodecyl sulphate polycrylamide gel electrophoresis and transferred to PVDF membranes. 5% non-fat milk (Servicebio, Wuhan, China) was used to block PVDF membranes and incubated with primary antibody for 12 h at 4 °C. Then, PVDF membranes were washed by TBST buffer (Servicebio, Wuhan, China) and incubated with secondary antibody at room temperature for 2 h. The enhanced chemiluminescence kit (Servicebio, Wuhan, China) was used to visualise immunoreactive bands. H3, GAPDH, Vimentin, N-cadherin, and E-cadherin as antibodies were purchased from Servicebio (Wuhan, China). Catalogue numbers of H3, GAPDH, Vimentin, N-cadherin, and E-cadherin as antibodies in Servicebio are GB11102, GB15004, GB11192, GB12135, and GB12868, respectively. H3K4me1 and H3K4me2 were obtained from Proteintech Group, Inc (Wuhan, China). Catalogue numbers of H3K4me1 and H3K4me2 as antibodies in Proteintech Group are 91289 and 39679, respectively.
For orientation: A western blot detects proteins with antibodies after separation by electrophoresis.

Experiment [1] relates to HepG2 cells. Put plainly: Wound healing and transwell assays. Particulars: 48 h, compared to control group. It is filed as cell-based, Human. The protocol:
Cancer cells were seeded into a 6-well plate for 12 h and each well was scratched using a sterile micropipette tip. Cellular debris was removed by PBS solution (Servicebio, Wuhan, China), and compound 14 at different concentrations (0, 0.5 μM, 1 μM, and 2 μM) was added. The 6-well plate was incubated for 48 h and photographed on a microscope.
Cancer cells were seeded into a Transwell 24-well plate (Corning, NY) and compound 14 was added. About 20% foetal bovine serum and 1% heat-inactivated foetal bovine serum were respectively added into the lower and upper chamber. The 24-well plate was incubated for 48 h at 37 °C, and it was washed by water. Cancer cells were fixed with cold ethanol for 20 min and stained with haematoxylin solution (Servicebio, Wuhan, China).

Experiment [2] deals with HepG2 cells. The experiment is described as follows: Xenograft study, HepG2 cells in nude mice. It is filed as in vivo, BALB/c nude mice. As to conditions: 60 mg/kg by gavage every day for 21 days. Here is the method:
Tumorigenesis in nude mice could stimulate the growth process of human tumours in the body, and could be used to develop and evaluate the effectiveness and safety of anti-cancer candidates. Therefore, xenograft studies in nude mice were performed to evaluate anticancer effects of compound 14. Animals were treated according to the protocols established by the ethics committee of The Fourth Clinical College of Xinxiang Medical University. The in vivo experiments were carried out in accordance with the approved guidelines and approved by the ethics committee of The Fourth Clinical College of Xinxiang Medical University. The number of ethics approvals is XMU-2024–01-03. All authors have adhered to the ARRIVE guidelines (https://arriveguidelines.org/). BALB/c nude mice were purchased from Beijing Huafukang Biotechnology Co., LTD (Beijing, China), and fifteen mice were used in this study (aged 6–7 weeks and weighing 20–30 g). Before the animal experiments, all nude mice were given a week to adjust to the clean, hygienic and specific-pathogen-free environment. All nude mice were taken care of instainless steel cages with a constant temperature of 60% humidity, 25 °C and a 12/12 light/dark cycle. Nude mice were fed with refreshing water and nourishing food everyday.
Then, nude mice were anaesthetised with 2% isoflurane and 0.3 l/min of oxygen by the small animal anaesthesia machine (Beijing Yi Zejia Technology Co., LTD, Beijing, China). 3 × 10^5 human liver cancer HepG2 cells were subcutaneously injected in the right armpit of mice. Until the volume of tumours reached 60–100 mm^3, all mice were randomly divided into three groups and each group had five nude mice. An amount of 60 mg/kg of compound 14, 10 mg/kg of seclidemstat and water as the control group were given by gavage every day for 21 days. Weight of mice and tumour volume were measured every 3 d. All nude mice in this xenograft studies were performed euthanizing procedures using a carbon dioxide euthanasia chamber (Shanghai Yuyan Instruments Co., Ltd, Shanghai, China). The flow rate of carbon dioxide was adjusted at 20% of the volume of the euthanasia chamber per minute. Once nude mice were unconscious, the flow rate was increased to 100% of the euthanasia chamber volume per minute. Death was confirmed by immobility, non-breathing and pupil enlargement. Tumours form BALB/c nude mice were isolated and weighed.

By viability is commonly meant a read-out of living cells in per cent, often relative to untreated cells. What is called IC50 is the point on the concentration scale where inhibition reaches its midpoint. For `COc1ccc(CN(C(=O)CCN2C(=O)CCCC2=O)c2cc(OC)c(OC)c(OC)c2)cc1` [Compound 14, 3-(2,6-dioxopiperidin-1-yl)-N-(4-methoxybenzyl)-N-(3,4,5-trimethoxyphenyl)propanamide], the viability at 10 µM in the experiment on C42B cells was 88%; in the experiment on PC3 cells it was 52%; with Caco-2 cells, 72.3%; with MCF7 cells it was 49.7%; with HL-60 cells it was 35.7%; in the experiment with 8505 C cells it was 49.7%. For the same compound, the viability at 10 µM in the experiment on OVCAR-3 cells amounted to 80.7%. Further, the IC50 in the experiment with HUH6 cells was 1.43 µM; in the experiment on HUH7 cells it was 4.37 µM. Further, the “methylation levels of H3K4me1 and H3K4me2” value in the experiment on H3K4me1/2 is “increase the methylation levels of H3K4me1 and H3K4me2”. In addition, the “migration of HepG2 cells” value in the experiment with HepG2 cells [1] is reported as “significantly suppresses the migration of HepG2 cells”. Further, the “growth of subcutaneous tumours” value with HepG2 cells [2] (nude mice bearing HepG2 cells) is listed as “inhibited the growth of subcutaneous tumours”. The “tumour growth inhibition rate” value in the experiment with HepG2 cells [2] (tumour weight, nude mice bearing HepG2 cells) was found to be 50.3%. The tumour volume entry in the experiment on HepG2 cells [2] (vs control group) is reported as “significantly lower than that in control group”. In addition, the tumour weight result in the experiment on HepG2 cells [2] (vs control group) is “lower than that of control group”.
